Read-outs that look alike come from different tables or passages of the source. Bounds are passed on as bounds.

From patent US4450115A, “Amino-alcohol derivatives” (Kyowa Hakko Kogyo Co., Ltd., priority 1979, dated 1984) come the findings set out here.

One data set in a line: in vivo. Particulars: mouse, male dd-strain mice. The source says:
The test compounds were orally administered to male dd-strain mice weighing 20-25 g.

The subject of data set [1] is main artery of the dogs' organ. In words: Effect on organ blood flow.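 Note: percent change relative to blood flow before compound administration.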 The format is in vivo, mongrel dogs. To be noted: Canis lupus familiaris, iv, Table 5, 0.1 mg administration, femoral vein.
The subject of another data set is α-adrenergic receptor. In words: α blocking activity (inhibition of Norepinephrine-induced increase in systolic blood pressure). The format is in vivo, mongrel dogs. Particulars: Table 6; dogs, test compound 0.1 mg/kg; 3 μg/kg Norepinephrine i.v. The procedure: (§1) In experiments (a), (b), (c) and (d), 3-4 male or female mongrel dogs (weight: 10-20 Kg) as one group were anesthetized by intravenous administration of 30 mg/kg of pentobarbital-Na. All compounds were dissolved in polyethylene glycol 400 and administered to the femoral vein.
(c-1) α blocking activity
In this test, 3 μg/kg of Norepinephrine is intravenously administered to the dogs to cause an increase in systolic blood pressure.

The subject of the next data set is β1-adrenergic receptor. In words: β1 blocking activity (inhibition of Isoproterenol-induced increase in heart rate). The format is in vivo, mongrel dogs. Particulars: Table 6; dogs, test compound 0.1 mg/kg; 0.5 μg/kg Isoproterenol i.v. The procedure:
as §1
(c-2) β1 blocking activity
In this test, 0.5 μg/kg of Isoproterenol is intravenously administered to the dogs to cause an increase in the heart rate.

In another data set the test system is β2-adrenergic receptor. In words: β2 blocking activity (inhibition of Isoproterenol-induced decrease in diastolic blood pressure). The format is in vivo, mongrel dogs. To be noted: Table 6; dogs, test compound 0.1 mg/kg; 0.5 μg/kg Isoproterenol i.v. As to the method:
as §1
(c-3) β2 blocking activity
In this test, 0.5 μg/kg of Isoproterenol is intravenously administered to the dogs to cause a decrease in diastolic blood pressure.

Data set [2] has as its system main artery of the dogs' organ. In words: Effect on organ blood flow.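 Note: percent change relative to blood flow before compound administration.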 Particulars: Canis lupus familiaris, iv, Table 7, femoral vein. The format is in vivo, mongrel dogs. As to the method: as §1
(b) Effect on organ blood flow M (%)
In this test, 1 mg/kg of each compound shown in Tables 5 and 7 is administered to the dogs and an electromagnetic probe is attached to the main artery of the dogs' organ to measure the flow of blood.

A short description of a further data set: Effect on heart rate. To be noted: Table 7; dogs, 1 mg/kg, femoral vein. Type of data set: in vivo, mongrel dogs. The procedure: as §1
(d) Effect on heart rate (beats/min.)

[3] abbreviates: read-out: Organ blood flow, Crotch (percentage change).
The mark [4] stands for this setting: read-out: Organ blood flow, Malleus (percentage change).

For orientation: LD50 means the dose at which mortality reaches 50%. A lower LD50 goes with a more toxic substance. Molecule `CCCC(=O)Nc1ccc(OCC(O)CNCC2COc3ccccc3O2)c(C(C)=O)c1` (centres unmarked) [Compound 4, 1-(4-butyrylamido-2-acetyl)phenoxy-3-(1,4-benzodioxane-2-methaneamino)-2-propanol] returned an LD50 in the data set “in vivo” (Table 5, oral) greater than 1000 mg/kg. For the same molecule, the change in vivo at 0.1 mg in data set [1] (setting [3]) is -18%; in data set [1] (setting [4]) it was -46%.

As to `CC(CCc1ccccc1)NCC(O)c1ccc(CC(N)=O)cc1` (centres unmarked) [Compound 22, 1-(4-carbamoylmethylphenyl)-2-(1-methyl-3-phenylpropylamino) ethanol], in the data set on α-adrenergic receptor, the “α blocking activity, percentage inhibition” value was “+19%”. Further, the “β1 blocking activity, percentage inhibition” value in the data set with β1-adrenergic receptor is on record as -8%. The LD50 in the data set “in vivo” (Table 6, oral) is greater than 1000 mg/kg. Also, the “β2 blocking activity, percentage inhibition” value in the data set with β2-adrenergic receptor is -11%.

Regarding `CCOC(=O)Cc1ccc(OCC(O)CNCCN(Cc2ccccc2)C(C)COc2ccccc2)cc1` (stereo not drawn) [Compound 26, 1-(4-ethoxycarbonylmethylphenoxy)-3-{β-[N-benzyl-N-(1-methyl-2-phenoxyethyl)]aminoethyl}amino-2-propanol], the change in vivo at 1 mg/kg in data set [2] (setting [3]) was -12%; in data set [2] (setting [4]) it was 67%. In “Effect on heart rate”, the “Heart rate (decrease)” value is -20 beats/min. In addition, the LD50 in “in vivo” (Table 7, oral) is greater than 1000 mg/kg.

Turning to `CC(=O)Nc1ccc(OCC(O)CNCCN(Cc2ccccc2)C(C)COc2ccccc2)cc1` (stereo not drawn) [Compound 27, 1-(4-acetamidophenoxy)-3-{β-[N-benzyl-N-(1-methyl-2-phenoxyethyl)]aminoethyl} amino-2-propanol], the change in vivo at 1 mg/kg in data set [2] (setting [3]) worked out at 3%; in data set [2] (setting [4]), 100%. Besides, the “Heart rate (decrease)” value in “Effect on heart rate” is on record as -13 beats/min. Moreover, the LD50 in the data set “in vivo” (Table 7, oral) was greater than 1000 mg/kg.

`CCCC(=O)Nc1ccc(OCC(O)CNCCN(Cc2ccccc2)C(C)COc2ccccc2)c(C(C)=O)c1` (stereo not drawn) [Compound 28, 1-(4-butyrylamido-2-acetylphenoxy)-3-{β-[N-benzyl-N-(1-methyl-2-phenoxyethyl)]aminoethyl} amino-2-propanol]: the change in vivo at 1 mg/kg stood at 4% in data set [2] (setting [3]) and 61% in data set [2] (setting [4]). Further, the “Heart rate (decrease)” value in “Effect on heart rate” is listed as -8 beats/min. Moreover, the LD50 in “in vivo” (Table 7, oral) fell in the range of 1000 to 2000 mg/kg.

On to `Cc1cccc(OCC(O)CNCCN(Cc2ccccc2)C(C)COc2ccccc2)c1` (stereo not drawn) [Compound 29, 1-(3-methylphenoxy)-3-{β-[N-benzyl-N-(1-methyl-2-phenoxyethyl)]aminoethyl} amino-2-propanol], for which the change in vivo at 1 mg/kg was -45% in data set [2] (setting [3]) and 100% in data set [2] (setting [4]). Further, the “Heart rate (decrease)” value in the data set “Effect on heart rate” is -4 beats/min.

With `CC(COc1ccccc1)N(CCNCC(O)COc1ccc(CC(N)=O)cc1)Cc1ccccc1` (stereo not drawn) [Compound 30, 1-(4-carbamoylmethylphenoxy)-3-{β-[N-benzyl-N-(1-methyl-2-phenoxyethyl)]aminoethyl} amino-2-propanol], the figures for the change in vivo at 1 mg/kg in data set [2] (setting [3]) and in data set [2] (setting [4]) were -19% and 10%, respectively. In addition, in the data set “Effect on heart rate”, the “Heart rate (decrease)” value is given as -5 beats/min.

Turning to `COc1ccc(OCC(C)NCC(O)COc2ccccc2C#N)cc1` (centres unmarked) [Compound 31], the “α blocking activity, percentage inhibition” value with α-adrenergic receptor was -20%. In addition, in the data set on β1-adrenergic receptor, the “β1 blocking activity, percentage inhibition” value was -54%. The same molecule showed an LD50 in the data set “in vivo” (Table 6, oral) of 125 to 250 mg/kg. Also, in the data set with β2-adrenergic receptor, the “β2 blocking activity, percentage inhibition” value is listed as -30%.

Turning to `CCOC(=O)Cc1ccc(OCC(O)CNC(C)COc2ccc(OC)cc2)cc1` (centres unmarked) [Compound 32, 1-(4-ethoxycarbonylmethylphenoxy)-3-{1-methyl-2-(4-methoxyphenoxy)ethylamino}-2-propanol], the “α blocking activity, percentage inhibition” value in the data set with α-adrenergic receptor is 0%. Further, the “β1 blocking activity, percentage inhibition” value in the data set on β1-adrenergic receptor is given as -11%. The same molecule displayed an LD50 in the data set “in vivo” (Table 6, oral) greater than 1000 mg/kg. In addition, in the data set on β2-adrenergic receptor, the “β2 blocking activity, percentage inhibition” value is listed as -2%.

On to `COc1ccc(OCC(C)NCC(O)COc2ccc(NC(C)=O)cc2)cc1` (centres unmarked) [Compound 33, 1-(4-acetamidophenoxy)-3-{1-methyl-2-(4-methoxyphenoxy)ethylamino}-2-propanol], for which, in the data set with α-adrenergic receptor, the “α blocking activity, percentage inhibition” value is on record as -21%. For the same molecule, the “β1 blocking activity, percentage inhibition” value with β1-adrenergic receptor was -52%. This molecule also yielded an LD50 in “in vivo” (Table 6, oral) greater than 1000 mg/kg. For the same molecule, the “β2 blocking activity, percentage inhibition” value with β2-adrenergic receptor is given as -13%.

With `COc1ccc(OCC(C)NCC(O)COc2ccc(CC(N)=O)cc2)cc1` (centres unmarked) [Compound 34, 1-(4-carbamoylmethylphenoxy)-3-{1-methyl-2-(4-methoxyphenoxy)ethylamino}-2-propanol], in the data set with α-adrenergic receptor, the “α blocking activity, percentage inhibition” value is -36%. Moreover, the “β1 blocking activity, percentage inhibition” value in the data set with β1-adrenergic receptor is on record as -55%. This molecule showed an LD50 in the data set “in vivo” (Table 6, oral) greater than 1000 mg/kg. In the data set on β2-adrenergic receptor, the “β2 blocking activity, percentage inhibition” value is -57%.
